Where two headings read alike, the source gives them in different places.
How the values were obtained:
[1] = test system: wheat leaf rust, Puccinia recondita; assay: whole plant or invertebrate; format: in vivo; details: foliar; for pest or weed control at 280.212 g/ha: read-out: % Control (without rain), foliar, 0.25 lb.; for pest or weed control at 1120.85 g/ha: read-out: % Control (without rain), foliar, 1 lb.
[2] = test system: wheat leaf rust, Puccinia recondita; assay: whole plant or invertebrate; format: in vivo; details: foliar; for pest or weed control at 280.212 g/ha: read-out: % Control (with 1" of rain), foliar, 0.25 lb., 1" of rain; for pest or weed control at 1120.85 g/ha: read-out: % Control (with 1" of rain), foliar, 1 lb., 1" of rain

For `Oc1nnc(S)n1-c1ccccc1` [Example 88, 3-mercapto-4-phenyl-5-hydroxy-1,2,4-triazole], the pest or weed control at 280.212 g/ha [1] was 73%, the pest or weed control at 1120.85 g/ha [1] was 80% and the pest or weed control at 280.212 g/ha [2] was 98%. For the same compound, the pest or weed control at 1120.85 g/ha [2] was 100%.

In the case of `C#CCn1cnnc1` [Example 15, 4-propargyl-1,2,4-triazole], the pest or weed control at 280.212 g/ha [1] is reported as 100%, the pest or weed control at 1120.85 g/ha [1] is reported as 100% and the pest or weed control at 280.212 g/ha [2] is reported as 99%. It also gave a pest or weed control at 1120.85 g/ha [2] of 100%.

In the case of `COc1ccc(C(=O)Sc2nncn2-c2ccccc2)cc1` [Example 129, 3-(4-methoxybenzoylmercapto)-4-phenyl-1,2,4-triazole], the pest or weed control at 280.212 g/ha [1] is reported as 100%, the pest or weed control at 1120.85 g/ha [1] is reported as 100% and the pest or weed control at 280.212 g/ha [2] is reported as 100%. For the same compound, the pest or weed control at 1120.85 g/ha [2] was 99%.

In the case of `COc1ccc(SCCn2cnnc2)cc1` [Example 32, 4-(2-(4-methoxythiophenoxy)ethyl)-1,2,4-trianzole], the pest or weed control at 280.212 g/ha [1] is reported as 95%, the pest or weed control at 1120.85 g/ha [1] is reported as 99% and the pest or weed control at 280.212 g/ha [2] is reported as 30%. For the same compound, the pest or weed control at 1120.85 g/ha [2] was 85%.

`Cn1c(O)nnc1S` [Example 86, 3-mercapto-4-methyl-5-hydroxy-1,2,4-triazole] showed a pest or weed control at 280.212 g/ha [1] of 96%, a pest or weed control at 1120.85 g/ha [1] of 99% and a pest or weed control at 280.212 g/ha [2] of 63%. The pest or weed control at 1120.85 g/ha [2] was 63%.

Compound `C=CCOCCSc1nncn1CCCC` [Example 108, 3-(2-allyloxyethylmercapto)-4-n-butyl-1,2,4-triazole] has a pest or weed control at 280.212 g/ha [1] of 35%, a pest or weed control at 1120.85 g/ha [1] of 85% and a pest or weed control at 280.212 g/ha [2] of 25%. The pest or weed control at 1120.85 g/ha [2] was 40%.

In the case of `CCCCn1cnnc1SC(=O)c1ccc(Br)cc1` [Example 119, 3-(4-bromobenzoylmercapto)-4-n-butyl-1,2,4-triazole], the pest or weed control at 280.212 g/ha [1] is reported as 100%, the pest or weed control at 1120.85 g/ha [1] is reported as 100% and the pest or weed control at 280.212 g/ha [2] is reported as 100%. For the same compound, the pest or weed control at 1120.85 g/ha [2] was 100%.

Compound `Cn1c(S)nnc1-c1ccco1` [Example 90, 3-mercapto-4-methyl-5-(2-furyl)-1,2,4-triazole] has a pest or weed control at 280.212 g/ha [1] of 0%, a pest or weed control at 1120.85 g/ha [1] of 28% and a pest or weed control at 280.212 g/ha [2] of 80%. It also gave a pest or weed control at 1120.85 g/ha [2] of 87%.

Compound `CCCCn1cnnc1SC(=O)c1ccccc1Br` [Example 118, 3-(2-bromobenzoylmercapto)-4-n-butyl-1,2,4-triazole] has a pest or weed control at 280.212 g/ha [1] of 100%, a pest or weed control at 1120.85 g/ha [1] of 100% and a pest or weed control at 280.212 g/ha [2] of 100%. For the same compound, the pest or weed control at 1120.85 g/ha [2] was 100%.

`Sc1nncn1C1CCCCC1` [Example 83, 3-mercapto-4-cyclohexyl-1,2,4-triazole] gave a pest or weed control at 280.212 g/ha [1] of 44%, a pest or weed control at 1120.85 g/ha [1] of 34% and a pest or weed control at 280.212 g/ha [2] of 100%. For the same compound, the pest or weed control at 1120.85 g/ha [2] was 98%.

With `CCCCSc1nncn1CCCC` [Example 103, 3-n-butylmercapto-4-n-butyl-1,2,4-triazole] the pest or weed control at 280.212 g/ha [1] was 50%, the pest or weed control at 1120.85 g/ha [1] was 90% and the pest or weed control at 280.212 g/ha [2] was 50%. The pest or weed control at 1120.85 g/ha [2] was 80%.

Compound `c1nc(CCn2cnnc2)c[nH]1` [Example 36, 4-[2-(4-imidazolyl)]-1,2,4-triazole] has a pest or weed control at 280.212 g/ha [1] of 0%, a pest or weed control at 1120.85 g/ha [1] of 10% and a pest or weed control at 280.212 g/ha [2] of 0%. For the same compound, the pest or weed control at 1120.85 g/ha [2] was 10%.

`Clc1ccc(-n2cnnc2)c(Cl)c1` [Example 56, 4-(2,4-dichlorophenyl)-1,2,4-triazole] gave a pest or weed control at 280.212 g/ha [1] of 90%, a pest or weed control at 1120.85 g/ha [1] of 65% and a pest or weed control at 280.212 g/ha [2] of 0%. It also gave a pest or weed control at 1120.85 g/ha [2] of 5%.

`c1ccc(-n2cnnc2)nc1` [Example 62, 4-(2-pyridyl)-1,2,4-triazole] gave a pest or weed control at 280.212 g/ha [1] of 100%, a pest or weed control at 1120.85 g/ha [1] of 100% and a pest or weed control at 1120.85 g/ha [2] of 99%.

`Clc1ccc(SCCn2cnnc2)cc1` [Example 30, 4-(2-(4-chlorothiophenoxy)ethyl)-1,2,4-triazole] was tested, and the pest or weed control at 280.212 g/ha [1] was 90%, the pest or weed control at 1120.85 g/ha [1] was 95% and the pest or weed control at 280.212 g/ha [2] was 35%. For the same compound, the pest or weed control at 1120.85 g/ha [2] was 75%.

Compound `Clc1ccc(Cn2cnnc2)cc1Cl` [Example 53, 4-(3,4-dichloroenzyl)-1,2,4-triazole] has a pest or weed control at 280.212 g/ha [1] of 60%, a pest or weed control at 1120.85 g/ha [1] of 70% and a pest or weed control at 280.212 g/ha [2] of 10%. It also gave a pest or weed control at 1120.85 g/ha [2] of 30%.

`CC(O)CCn1cnnc1` (stereo not drawn) [Example 20, 4-(3-hydroxybutyl)-1,2,4-triazole] was tested, and the pest or weed control at 280.212 g/ha [1] was 0%, the pest or weed control at 1120.85 g/ha [1] was 0% and the pest or weed control at 280.212 g/ha [2] was 0%. For the same compound, the pest or weed control at 1120.85 g/ha [2] was 0%.

`Sc1nncn1-c1ccccc1` [Example 85, 3-mercapto-4-phenyl-1,2,4-triazole] was tested, and the pest or weed control at 280.212 g/ha [1] was 80%, the pest or weed control at 1120.85 g/ha [1] was 85% and the pest or weed control at 280.212 g/ha [2] was 72%. For the same compound, the pest or weed control at 1120.85 g/ha [2] was 90%.

Compound `CCN(CC)CCn1cnnc1` [Example 35] has a pest or weed control at 280.212 g/ha [1] of 30%, a pest or weed control at 1120.85 g/ha [1] of 40% and a pest or weed control at 280.212 g/ha [2] of 0%. For the same compound, the pest or weed control at 1120.85 g/ha [2] was 10%.
